From paper PMC5520972 (Cancer chemotherapy and pharmacology, 2017)

Columns and labels:
AAG and albumin = conditions: bound to both AAG and albumin; cited from earlier work
[1] = Safety and tolerability, dose-limiting toxicities; format: in vivo, human; conditions: for Dose-limiting toxicity, hyperbilirubinemia (number of patients): days 1–8
[2] = cited from earlier work
HCC = test: Response assessment; format: in vivo, human; conditions: of 11 HCC patients; 3 based solely on symptomatic deterioration

Structure (SMILES): CS(=O)(=O)c1ccc(C(=O)Nc2ccc(Cl)c(-c3ccccn3)c2)c(Cl)c1 [vismodegib]
- Percentage of dose excreted in urine over a 24-h interval (all patients, regardless of hepatic function, day 8): < 1%
- Renal clearance (CLR) (patients with hepatic impairment compared to normal hepatic function): lower
- Plasma protein bound (AAG and albumin): greater than 98%
- AEs grade 3 or 4 in severity ([1]; all cohorts): 67.7%
- Total patients who experienced DLTs of hyperbilirubinemia ([1]; all cohorts, 31 patients): three
- Patients who experienced at least one AE ([1]; all groups, 31 patients): 96.8%
- Adverse event frequency: abdominal pain ([1]; all patients): 22.6%
- Adverse event frequency: decreased appetite ([1]; all patients): 22.6%
- Adverse event frequency: dysgeusia ([1]; all patients): 22.6%
- Adverse event frequency: fatigue ([1]; all patients): 67.7%
- Adverse event frequency: muscle spasms ([1]; all patients): 22.6%
- Adverse event frequency: nausea ([1]; all patients): 35.5%
- Adverse event frequency: vomiting ([1]; all patients): 22.6%
- Serious AE: abdominal pain ([1]; all patients (2 patients)): 6.5%
- Serious AE: hyperbilirubinemia ([1]; all patients (2 patients)): 6.5%
- Serious AE: upper gastrointestinal hemorrhage ([1]; all patients (2 patients)): 6.5%
- Patients who experienced serious AEs ([1]; all patients (16 patients)): 51.6%
- AEs grade 3 or 4 in severity ([1]; control cohort): 44.4%
- AEs grade 3 or 4 in severity ([1]; mild cohort): 75%
- Patients who experienced serious AEs ([1]; mild cohort (4 patients)): 50%
- Adverse events leading to withdrawal of vismodegib: intracranial bleed ([1]; mild cohort n = 8): 1 (intracranial bleed)
- Deaths due to progression of disease (number of patients) ([1]; mild cohort n = 8): 1
- Dose-limiting toxicity, hyperbilirubinemia (number of patients) ([1]; mild cohort n = 8, oral 150 mg daily): 0
- AEs grade 3 or 4 in severity ([1]; moderate cohort): 87.5%
- Patients who experienced serious AEs ([1]; moderate cohort (6 patients)): 75%
- Adverse events leading to withdrawal of vismodegib: GI bleeds ([1]; moderate cohort n = 8): 2
- Adverse events leading to withdrawal of vismodegib: hyperbilirubinemia ([1]; moderate cohort n = 8): 1
- Deaths due to progression of disease (number of patients) ([1]; moderate cohort n = 8): 3
- Patients who experienced serious AEs ([1]; normal cohort (3 patients)): 33.3%
- Adverse events leading to withdrawal of vismodegib ([1]; normal cohort n = 9): 0
- Deaths due to progression of disease (number of patients) ([1]; normal cohort n = 9): 0
- Dose-limiting toxicity, hyperbilirubinemia (number of patients) ([1]; normal cohort n = 9, oral 150 mg daily): 0
- AEs grade 3 or 4 in severity ([1]; severe cohort): 66.7%
- Patients who experienced serious AEs ([1]; severe cohort (3 patients)): 50%
- Adverse events leading to withdrawal of vismodegib: fatigue ([1]; severe cohort n = 6): 1
- Adverse events leading to withdrawal of vismodegib: hyperbilirubinemia ([1]; severe cohort n = 6): 2
- Adverse events leading to withdrawal of vismodegib: hyponatremia ([1]; severe cohort n = 6): 1
- Adverse events leading to withdrawal of vismodegib: leukocytosis ([1]; severe cohort n = 6): 1
- Deaths due to progression of disease (number of patients) ([1]; severe cohort n = 6): 1
- Cmax interpatient coefficient of variation [2]: ~37.4%
- PK variability explained by AAG levels [2]: > 70%
- HCC patients with progressive disease (HCC): nine
